Drawing on ChEMBL document CHEMBL1201862, “PubChem BioAssay data set” (2004), this text covers IC50 and EC50 for five compounds.

Molecules are shown by their SMILES. Calls of active or inactive are those of the source.

In one test the target is T1, Leucine aminopeptidase (Plasmodium falciparum 3D7, UniProt Q8IL11).
T1 sequence (Q8IL11 whole entry): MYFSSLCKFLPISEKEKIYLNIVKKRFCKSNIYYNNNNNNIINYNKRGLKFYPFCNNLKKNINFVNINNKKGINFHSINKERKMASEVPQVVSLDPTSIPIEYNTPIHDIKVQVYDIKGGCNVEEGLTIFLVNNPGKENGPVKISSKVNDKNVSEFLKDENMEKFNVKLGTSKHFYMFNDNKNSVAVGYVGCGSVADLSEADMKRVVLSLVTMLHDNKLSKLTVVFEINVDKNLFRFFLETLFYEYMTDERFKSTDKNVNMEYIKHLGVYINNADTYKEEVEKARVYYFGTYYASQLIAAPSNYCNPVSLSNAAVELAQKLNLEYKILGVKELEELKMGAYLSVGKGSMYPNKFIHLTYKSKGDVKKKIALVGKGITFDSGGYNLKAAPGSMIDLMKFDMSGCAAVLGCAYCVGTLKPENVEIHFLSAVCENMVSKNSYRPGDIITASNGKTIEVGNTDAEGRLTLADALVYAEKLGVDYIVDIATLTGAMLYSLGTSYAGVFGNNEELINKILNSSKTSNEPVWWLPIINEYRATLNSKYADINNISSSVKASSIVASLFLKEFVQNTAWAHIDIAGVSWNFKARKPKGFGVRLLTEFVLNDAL
The test is described as follows: P. falciparum M17LAP inhibitors, primary screen, biochemical, fluorogenic H-Leu-NHMec substrate, 1536-well (AID 1619). It is filed as functional.

Test [1] addresses Peroxisome proliferator-activated receptor gamma/Nuclear receptor coactivator 1 (Homo sapiens, UniProt P37231). Briefly: TR-FRET dose response biochemical High Throughput Screening assay for agonists of the steroid receptor coactivator 1 (SRC-1) recruitment by the peroxisome proliferator-activated receptor gamma (PPAR gamma): non-selective agonists. [Related pubchem assays (depositor defined):AID1300, AID1808, AID504735, AID631]. In kind it is protein assay. In general terms: TR-FRET usually uses a lanthanide donor and a delayed reading to cut background.

For test [2], the target named is Peroxisome proliferator-activated receptor gamma/Nuclear receptor coactivator 3 (Homo sapiens, UniProt P37231). The test is described as follows: TR-FRET dose response biochemical High Throughput Screening assay for agonists of the steroid receptor coactivator 3 (SRC-3) recruitment by the peroxisome proliferator-activated receptor gamma (PPAR gamma): non-selective agonists. [Related pubchem assays: 1301 (Confirmation screen.), 1048 (Primary screen.)]. In kind it is functional.

The target of test [3] is Peroxisome proliferator-activated receptor gamma/Nuclear receptor coactivator 2 (Homo sapiens, UniProt P37231). Briefly: TR-FRET dose response biochemical High Throughput Screening assay for agonists of the steroid receptor coactivator 2 (SRC-2) recruitment by the peroxisome proliferator-activated receptor gamma (PPAR gamma): non-selective agonists. [Related pubchem assays: 1297, 1032 ]. It is filed as functional.

A further test addresses T2, Aspartyl aminopeptidase (Plasmodium falciparum 3D7, UniProt Q8I2J3).
T2 sequence (Q8I2J3 whole entry): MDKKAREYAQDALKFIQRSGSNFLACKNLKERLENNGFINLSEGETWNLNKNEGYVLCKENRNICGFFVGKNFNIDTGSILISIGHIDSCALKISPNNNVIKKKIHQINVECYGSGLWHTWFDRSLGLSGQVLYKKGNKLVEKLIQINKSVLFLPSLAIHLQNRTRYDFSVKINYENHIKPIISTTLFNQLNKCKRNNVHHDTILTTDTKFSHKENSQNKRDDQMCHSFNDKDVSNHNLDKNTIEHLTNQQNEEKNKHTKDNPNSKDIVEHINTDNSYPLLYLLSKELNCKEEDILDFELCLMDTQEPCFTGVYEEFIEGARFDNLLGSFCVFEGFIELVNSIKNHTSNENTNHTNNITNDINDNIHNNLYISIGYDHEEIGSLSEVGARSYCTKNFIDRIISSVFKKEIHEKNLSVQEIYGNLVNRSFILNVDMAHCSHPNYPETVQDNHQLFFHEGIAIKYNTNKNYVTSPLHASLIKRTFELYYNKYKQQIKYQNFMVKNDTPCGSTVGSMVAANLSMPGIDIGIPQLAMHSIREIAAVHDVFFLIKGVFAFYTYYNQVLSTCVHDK
The test is described as follows: Counterscreen for inhibitors of M1 and M17 aminopeptidases: QFRET-based biochemical high throughput dose response assay for inhibitors of the Plasmodium falciparum M18 Aspartyl Aminopeptidase (PFM18AAP). [Related PubChem assays: 1619 (Screening assay (M17LAP inhibitors).), 1445 (Screening assay (M1AAP inhibitors).)]. For orientation: The purpose of a counterscreen is to sort out artefacts and off-target activity.

A further test has as its target T3, Aminopeptidase N (Plasmodium falciparum FcB1/Columbia, UniProt O96935).
T3 sequence (O96935 whole entry): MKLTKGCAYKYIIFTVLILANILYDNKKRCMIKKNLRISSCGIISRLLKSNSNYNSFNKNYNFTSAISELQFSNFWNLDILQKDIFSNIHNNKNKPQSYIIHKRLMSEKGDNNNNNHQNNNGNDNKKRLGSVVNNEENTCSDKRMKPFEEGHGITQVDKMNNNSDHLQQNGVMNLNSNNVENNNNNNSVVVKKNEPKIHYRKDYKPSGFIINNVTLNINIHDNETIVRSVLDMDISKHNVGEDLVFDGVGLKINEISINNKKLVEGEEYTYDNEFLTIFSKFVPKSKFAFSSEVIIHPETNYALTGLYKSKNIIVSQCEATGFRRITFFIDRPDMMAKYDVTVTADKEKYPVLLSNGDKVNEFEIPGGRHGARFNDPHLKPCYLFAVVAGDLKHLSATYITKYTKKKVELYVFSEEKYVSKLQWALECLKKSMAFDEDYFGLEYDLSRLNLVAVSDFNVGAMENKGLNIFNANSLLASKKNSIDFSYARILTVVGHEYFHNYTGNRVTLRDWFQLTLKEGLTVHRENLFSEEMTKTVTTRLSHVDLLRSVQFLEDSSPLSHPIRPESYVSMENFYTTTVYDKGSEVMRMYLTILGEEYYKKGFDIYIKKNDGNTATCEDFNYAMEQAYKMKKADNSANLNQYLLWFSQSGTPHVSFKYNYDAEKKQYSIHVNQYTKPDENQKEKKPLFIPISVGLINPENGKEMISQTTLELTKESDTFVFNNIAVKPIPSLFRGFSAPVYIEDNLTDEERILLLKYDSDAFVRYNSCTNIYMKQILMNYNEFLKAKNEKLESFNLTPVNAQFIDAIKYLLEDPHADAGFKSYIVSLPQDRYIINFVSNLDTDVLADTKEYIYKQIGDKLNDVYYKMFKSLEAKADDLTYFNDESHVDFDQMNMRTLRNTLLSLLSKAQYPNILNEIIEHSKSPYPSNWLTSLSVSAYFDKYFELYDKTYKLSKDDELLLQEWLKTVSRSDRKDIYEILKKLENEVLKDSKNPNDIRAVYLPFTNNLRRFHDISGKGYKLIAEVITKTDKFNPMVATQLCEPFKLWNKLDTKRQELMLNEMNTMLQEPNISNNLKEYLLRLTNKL
The test is described as follows: malaria alanyl aminopeptidase activity blockers – biochemical, fluorogenic H-Leu-NHMec substrate, 1536-well (AID 1445). Also noted: species or system Plasmodium falciparum 3D7, 3D7.

Another test has as its target Procathepsin L (Homo sapiens, UniProt P07711). The test is described as follows: CTSL1 protease inhibition – biochemical, QFRET, 1536-well, counter-screen for M1/M17 aminopeptidase inhibitor project, dose response (AID 2214).
The target of test [4] is T4, Intestinal-type alkaline phosphatase (Mus musculus, UniProt P24822). The test is described as follows: PubChem AID 488785. It is filed as functional.
For test [5], the target named is T5, Alkaline phosphatase, tissue-nonspecific isozyme (Homo sapiens, UniProt P05186).
T5 sequence (P05186 whole entry): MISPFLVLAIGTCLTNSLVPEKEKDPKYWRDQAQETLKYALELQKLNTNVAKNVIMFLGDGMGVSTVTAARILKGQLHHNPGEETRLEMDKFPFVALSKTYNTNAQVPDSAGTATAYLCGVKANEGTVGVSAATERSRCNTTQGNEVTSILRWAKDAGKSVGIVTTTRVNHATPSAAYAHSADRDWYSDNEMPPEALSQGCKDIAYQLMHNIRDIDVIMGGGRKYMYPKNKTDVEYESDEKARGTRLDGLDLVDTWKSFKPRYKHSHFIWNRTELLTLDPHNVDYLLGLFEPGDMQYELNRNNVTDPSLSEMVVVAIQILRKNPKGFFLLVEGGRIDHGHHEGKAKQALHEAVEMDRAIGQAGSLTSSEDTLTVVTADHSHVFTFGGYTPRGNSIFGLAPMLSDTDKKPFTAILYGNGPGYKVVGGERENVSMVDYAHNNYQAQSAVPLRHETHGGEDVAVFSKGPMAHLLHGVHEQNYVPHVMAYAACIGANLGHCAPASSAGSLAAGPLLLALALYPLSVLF
Briefly: TNAP enzyme inhibition by screening hits, dose response, selectivity assay for mouse IAP inhibitor project, biochemical, human TNAP, uHTS hits (AID 488906). It is filed as functional.

Test [6] concerns the target T6, Intestinal-type alkaline phosphatase (Homo sapiens, UniProt P09923). The test is described as follows: inhibition of human intestinal alkaline phosphatase – biochemical, dose response (AID 488876). In kind it is functional.
Test [7] has as its target T7, Cannabinoid receptor 2 (Homo sapiens, UniProt P34972). Briefly: SAR analysis of antagonists of the Cannabinoid Receptor 2 using an Image-Based Assay - Set 2. [Related pubchem assays (depositor defined):AID1961, AID1965]. In kind it is functional.
Test [8] has as its target T7, Cannabinoid receptor 2. The test is described as follows: SAR analysis of agonists of the Cannabinoid Receptor 2 using an Image-Based Assay - Set 2. [Related pubchem assays (depositor defined):AID1961, AID1965]. It is filed as functional.
The target in test [9] is G-protein coupled receptor 55 (Homo sapiens, UniProt Q9Y2T6). Briefly: SAR analysis of selective Agonists of GPR55 using an Image-Based Assay. [Related pubchem assays (depositor defined):AID1961, AID1965]. In kind it is functional.
The next test addresses Cannabinoid receptor 1 (Homo sapiens, UniProt P21554). The test is described as follows: SAR analysis of antagonists of the Cannabinoid Receptor 1 using an Image-Based Assay. [Related pubchem assays (depositor defined):AID1961, AID1965]. In kind it is functional.
For test [10], the target named is T8, Delta-type opioid receptor (Homo sapiens, UniProt P41143). The test is described as follows: HTS Image-Based Screen for Antagonists of the DOR Receptor. [Related pubchem assays (depositor defined):AID1777, AID1785, AID1786, AID2133]. In kind it is functional.
In a further test the target is Mu-type opioid receptor (Homo sapiens, UniProt P35372). The test is described as follows: HTS Image-Based Screen for Agonists of the MOR Receptor. [Related pubchem assays (depositor defined):AID1777, AID1785, AID1786, AID2133]. It is filed as functional.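 Further: imaging of beta-arrestin GFP recruitment into spots after receptor activation.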
Test [11] deals with T8, Delta-type opioid receptor. The test is described as follows: HTS Image-Based Screen for Agonists of the DOR Receptor. [Related pubchem assays (depositor defined):AID1777, AID1786, AID2133]. In kind it is functional.
For test [12], the target named is T9, Kappa-type opioid receptor (Homo sapiens, UniProt P41145). In kind it is functional.
The next test deals with Beta-galactosidase (Escherichia coli, UniProt Q8VNN2). It is filed as functional.
In test [13] the target is T9, Kappa-type opioid receptor. In kind it is functional. The source holds these as a separate data set.
For test [14], the target named is T6, Intestinal-type alkaline phosphatase. Briefly: activation of human intestinal alkaline phosphatase – biochemical, dose response (AID 488873). In kind it is functional.
Test [15] addresses T4, Intestinal-type alkaline phosphatase. Briefly: mouse intestinal alkaline phosphatase activators, dose response, biochemical, luminescence, uHTS hits (AID 488783). In kind it is functional.
In test [16] the target is T5, Alkaline phosphatase, tissue-nonspecific isozyme. The test is described as follows: activation of tissue-nonspecific alkaline phosphatase – biochemical, TNAP isozyme, mouse IAP uHTS hits, selectivity assay for mouse IAP activator project, dose response (AID 488880). It is filed as functional.

T4 sequence (P24822 whole entry): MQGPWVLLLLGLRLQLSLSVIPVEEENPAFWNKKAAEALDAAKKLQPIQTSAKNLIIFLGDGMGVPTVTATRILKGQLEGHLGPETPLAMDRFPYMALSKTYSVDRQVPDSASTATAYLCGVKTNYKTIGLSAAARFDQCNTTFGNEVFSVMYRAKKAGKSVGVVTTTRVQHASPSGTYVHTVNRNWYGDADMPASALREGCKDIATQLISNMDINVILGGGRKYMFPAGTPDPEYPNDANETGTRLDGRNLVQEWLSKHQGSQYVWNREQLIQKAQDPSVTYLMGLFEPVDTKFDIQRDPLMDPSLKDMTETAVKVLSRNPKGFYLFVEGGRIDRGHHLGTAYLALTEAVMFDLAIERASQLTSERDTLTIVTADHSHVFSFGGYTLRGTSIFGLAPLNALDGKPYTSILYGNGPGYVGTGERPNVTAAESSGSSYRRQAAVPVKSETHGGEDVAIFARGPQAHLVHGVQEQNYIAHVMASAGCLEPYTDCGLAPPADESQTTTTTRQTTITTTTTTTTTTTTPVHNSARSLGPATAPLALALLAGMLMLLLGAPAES
T6 sequence (P09923 whole entry): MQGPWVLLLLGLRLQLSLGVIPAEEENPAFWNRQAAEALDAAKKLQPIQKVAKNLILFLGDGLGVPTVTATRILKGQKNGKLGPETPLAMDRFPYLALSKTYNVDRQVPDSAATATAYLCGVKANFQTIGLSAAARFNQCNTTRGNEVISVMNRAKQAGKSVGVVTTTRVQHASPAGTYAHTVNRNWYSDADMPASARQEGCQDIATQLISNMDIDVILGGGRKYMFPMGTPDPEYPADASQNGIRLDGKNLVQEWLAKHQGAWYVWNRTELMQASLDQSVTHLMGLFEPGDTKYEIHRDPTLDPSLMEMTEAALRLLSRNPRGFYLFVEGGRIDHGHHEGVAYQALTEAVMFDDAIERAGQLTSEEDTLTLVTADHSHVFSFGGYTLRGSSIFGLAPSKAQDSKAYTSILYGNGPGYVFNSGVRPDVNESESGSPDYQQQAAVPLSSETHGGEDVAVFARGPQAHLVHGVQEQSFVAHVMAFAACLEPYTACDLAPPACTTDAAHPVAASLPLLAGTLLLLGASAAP
T8 sequence (P41143 whole entry): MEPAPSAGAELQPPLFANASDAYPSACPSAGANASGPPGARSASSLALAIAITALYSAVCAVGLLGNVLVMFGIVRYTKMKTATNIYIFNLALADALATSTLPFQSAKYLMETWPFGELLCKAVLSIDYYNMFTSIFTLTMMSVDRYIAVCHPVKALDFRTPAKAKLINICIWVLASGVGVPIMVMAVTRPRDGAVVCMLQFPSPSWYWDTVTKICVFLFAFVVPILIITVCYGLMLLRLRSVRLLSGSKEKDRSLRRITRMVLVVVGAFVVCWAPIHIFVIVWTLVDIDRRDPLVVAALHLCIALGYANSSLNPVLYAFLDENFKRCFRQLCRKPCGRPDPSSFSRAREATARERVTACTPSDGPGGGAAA
T9 sequence (P41145 whole entry): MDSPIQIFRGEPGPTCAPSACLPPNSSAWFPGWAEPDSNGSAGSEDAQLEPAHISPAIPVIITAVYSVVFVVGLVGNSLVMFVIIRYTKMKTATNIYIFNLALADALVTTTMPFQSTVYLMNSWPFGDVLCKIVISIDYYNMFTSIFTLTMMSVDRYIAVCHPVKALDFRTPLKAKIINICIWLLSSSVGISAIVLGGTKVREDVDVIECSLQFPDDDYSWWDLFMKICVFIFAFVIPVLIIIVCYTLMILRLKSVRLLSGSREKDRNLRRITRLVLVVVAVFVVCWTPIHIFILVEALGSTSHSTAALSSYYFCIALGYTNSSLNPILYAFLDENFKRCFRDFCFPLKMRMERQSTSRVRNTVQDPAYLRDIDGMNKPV
T7 sequence (P34972 whole entry): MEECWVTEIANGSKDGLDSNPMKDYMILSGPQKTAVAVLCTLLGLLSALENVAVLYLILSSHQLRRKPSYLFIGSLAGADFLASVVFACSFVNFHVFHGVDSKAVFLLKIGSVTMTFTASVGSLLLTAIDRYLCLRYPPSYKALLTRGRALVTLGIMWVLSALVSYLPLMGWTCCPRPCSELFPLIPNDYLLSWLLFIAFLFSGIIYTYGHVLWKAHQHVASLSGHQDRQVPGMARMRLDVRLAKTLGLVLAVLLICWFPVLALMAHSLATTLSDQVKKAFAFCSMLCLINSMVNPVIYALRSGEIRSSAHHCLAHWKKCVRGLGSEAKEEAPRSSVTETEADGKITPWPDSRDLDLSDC
Beta-galactosidase, sequence (Q8VNN2 whole entry): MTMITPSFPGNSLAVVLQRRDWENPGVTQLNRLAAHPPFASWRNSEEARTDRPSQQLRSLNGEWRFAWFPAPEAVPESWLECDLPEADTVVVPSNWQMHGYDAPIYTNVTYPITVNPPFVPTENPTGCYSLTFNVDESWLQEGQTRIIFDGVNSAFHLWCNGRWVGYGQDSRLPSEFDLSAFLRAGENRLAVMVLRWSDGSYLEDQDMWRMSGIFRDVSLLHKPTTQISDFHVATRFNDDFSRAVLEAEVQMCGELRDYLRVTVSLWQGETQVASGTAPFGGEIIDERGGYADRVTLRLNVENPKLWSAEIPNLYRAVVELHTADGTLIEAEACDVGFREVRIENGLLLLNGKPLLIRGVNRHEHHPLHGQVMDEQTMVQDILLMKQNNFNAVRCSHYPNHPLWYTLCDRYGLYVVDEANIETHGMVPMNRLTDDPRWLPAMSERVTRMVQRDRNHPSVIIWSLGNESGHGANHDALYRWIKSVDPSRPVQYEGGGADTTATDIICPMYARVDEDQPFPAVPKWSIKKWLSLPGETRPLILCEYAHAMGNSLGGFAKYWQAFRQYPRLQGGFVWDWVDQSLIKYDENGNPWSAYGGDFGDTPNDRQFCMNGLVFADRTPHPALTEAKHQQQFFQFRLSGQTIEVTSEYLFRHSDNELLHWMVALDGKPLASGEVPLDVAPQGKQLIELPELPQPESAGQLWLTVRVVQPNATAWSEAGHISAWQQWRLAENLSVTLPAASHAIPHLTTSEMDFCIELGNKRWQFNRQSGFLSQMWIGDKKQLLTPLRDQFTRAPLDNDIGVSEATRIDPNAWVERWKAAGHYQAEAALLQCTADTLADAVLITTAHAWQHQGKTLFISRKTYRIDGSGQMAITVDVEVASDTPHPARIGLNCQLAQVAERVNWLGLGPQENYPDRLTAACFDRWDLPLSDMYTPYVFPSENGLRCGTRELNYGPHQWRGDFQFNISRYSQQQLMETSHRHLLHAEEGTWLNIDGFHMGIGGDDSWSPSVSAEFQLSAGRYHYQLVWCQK
G-protein coupled receptor 55, sequence (Q9Y2T6 whole entry): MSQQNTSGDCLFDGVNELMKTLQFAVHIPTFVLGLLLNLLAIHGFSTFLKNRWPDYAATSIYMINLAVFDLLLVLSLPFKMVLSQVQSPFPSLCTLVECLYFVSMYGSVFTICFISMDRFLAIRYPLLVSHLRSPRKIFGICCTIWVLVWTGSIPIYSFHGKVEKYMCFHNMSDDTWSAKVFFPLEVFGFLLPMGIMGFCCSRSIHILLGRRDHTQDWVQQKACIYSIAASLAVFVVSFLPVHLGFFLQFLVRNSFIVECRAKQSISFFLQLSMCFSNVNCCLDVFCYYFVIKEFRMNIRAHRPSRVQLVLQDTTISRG
Procathepsin L, sequence (P07711 whole entry): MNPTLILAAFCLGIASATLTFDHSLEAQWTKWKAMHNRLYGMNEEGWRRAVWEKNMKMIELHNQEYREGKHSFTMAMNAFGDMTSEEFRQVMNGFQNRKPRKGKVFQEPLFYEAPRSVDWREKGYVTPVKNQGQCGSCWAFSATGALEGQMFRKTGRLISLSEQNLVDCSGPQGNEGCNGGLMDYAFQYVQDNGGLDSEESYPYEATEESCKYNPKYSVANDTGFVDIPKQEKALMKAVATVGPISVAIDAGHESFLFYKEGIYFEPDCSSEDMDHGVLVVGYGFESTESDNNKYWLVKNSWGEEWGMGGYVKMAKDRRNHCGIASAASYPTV
Mu-type opioid receptor, sequence (P35372 whole entry): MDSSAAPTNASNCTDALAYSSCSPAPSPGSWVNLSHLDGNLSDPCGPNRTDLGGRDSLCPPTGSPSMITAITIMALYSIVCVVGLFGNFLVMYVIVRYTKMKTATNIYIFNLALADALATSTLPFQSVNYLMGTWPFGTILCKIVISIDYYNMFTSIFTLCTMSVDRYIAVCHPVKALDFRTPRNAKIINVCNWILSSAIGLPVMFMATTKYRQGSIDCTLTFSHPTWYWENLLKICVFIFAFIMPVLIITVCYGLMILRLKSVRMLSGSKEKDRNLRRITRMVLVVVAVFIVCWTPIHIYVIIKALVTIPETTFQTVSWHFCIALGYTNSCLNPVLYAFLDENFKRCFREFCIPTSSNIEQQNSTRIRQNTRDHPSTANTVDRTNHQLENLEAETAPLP
Cannabinoid receptor 1, sequence (P21554 whole entry): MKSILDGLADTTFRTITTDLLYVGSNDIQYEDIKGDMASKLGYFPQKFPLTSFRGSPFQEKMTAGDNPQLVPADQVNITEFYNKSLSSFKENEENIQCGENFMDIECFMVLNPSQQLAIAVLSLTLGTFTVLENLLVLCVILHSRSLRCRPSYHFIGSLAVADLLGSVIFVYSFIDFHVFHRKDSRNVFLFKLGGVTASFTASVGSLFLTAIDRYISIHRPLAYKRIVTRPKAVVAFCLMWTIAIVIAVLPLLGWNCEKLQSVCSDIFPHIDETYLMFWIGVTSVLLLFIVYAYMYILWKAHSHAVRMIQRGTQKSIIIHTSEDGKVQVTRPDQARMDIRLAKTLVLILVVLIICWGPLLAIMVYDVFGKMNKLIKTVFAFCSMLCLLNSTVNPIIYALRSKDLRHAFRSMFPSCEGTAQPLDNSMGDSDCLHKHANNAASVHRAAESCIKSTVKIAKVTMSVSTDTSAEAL

By IC50 is commonly meant the concentration at which inhibition is half-maximal. A word on the EC50: it is the concentration needed to bring the measured effect to its halfway point. Turning to `CCOC(=O)c1c(-c2cccs2)csc1NC(=O)CCCC(=O)O`, the IC50 on Leucine aminopeptidase is 20.3 µM (active). The EC50 is 69.1 µM (inactive) in [1], > 79.4 µM (not active) in test [2] and 39.6 µM (not active) in [3].

With `O=C1Nc2ccccc2/C1=C1/SC(=S)N(NC(=O)c2ccccc2)C1=O`, the half-inhibitory concentration (IC50) against Aspartyl aminopeptidase is > 73.5 µM (not active); on Aminopeptidase N, 11.2 µM (active); at Procathepsin L, 38.3 µM (not active); in test [4], 6.46 µM (active); in test [5] it was > 100 µM (inactive); in [6], 3.09 µM (active).

In the case of `CCCN(CCC)Cc1c(C(=O)NN=C/C(C)=C\c2ccco2)nnn1-c1nonc1N`, the IC50 on Cannabinoid receptor 2 [7] and on Cannabinoid receptor 1 was > 32 µM (inactive) each time. Besides, the results for the EC50 (at Cannabinoid receptor 2 [8]; in test [9]) were > 32 µM (inactive) and 0.597 µM (active), respectively.

Consider `CCOc1ccccc1C(=O)NC1CC2CCCC(C1)N2Cc1ccc(C)cc1` (stereo not drawn), for which the IC50 in test [10] was > 32 µM (inactive); in [12] it was 4.81 µM (active); in [13], 21.7 µM. In addition, the values for the EC50 (on Mu-type opioid receptor; in test [11]; on Beta-galactosidase) were > 32 µM (inactive), > 32 µM (inactive) and > 31.5 µM (inactive), respectively.

For the compound `Cc1ccc(NC(=O)CCNS(=O)(=O)c2ccc3[nH]c(=O)oc3c2)cc1F`, the EC50 was > 100 µM (inactive) in test [14], 1.76 µM (active) in [15] and > 100 µM (inactive) in [16].
